Measured values published in paper PMC6968676, “Inhibition survey with phenolic compounds against the δ- and η-class carbonic anhydrases from the marine diatom thalassiosira weissflogii and protozoan Plasmodium falciparum” (Journal of Enzyme Inhibition and Medicinal Chemistry, 2019).

These compounds were tested against T1, TweCA (TweCAδ) (Conticribra weissflogii, UniProt Q5U9J1) (assay: stopped-flow CO2 hydration assay).
T1 construct: gene ca1; recombinant, obtained in-house as reported earlier
T1 sequence (Q5U9J1 1-281): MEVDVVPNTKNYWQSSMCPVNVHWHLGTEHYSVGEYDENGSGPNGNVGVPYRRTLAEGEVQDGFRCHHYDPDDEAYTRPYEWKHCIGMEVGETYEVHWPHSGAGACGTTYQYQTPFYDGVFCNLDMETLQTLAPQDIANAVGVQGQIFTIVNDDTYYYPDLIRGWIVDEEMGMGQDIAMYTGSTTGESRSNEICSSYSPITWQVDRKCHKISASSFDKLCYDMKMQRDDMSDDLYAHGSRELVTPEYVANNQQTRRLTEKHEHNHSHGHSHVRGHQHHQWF
Type: biochemical

Q: Oc1ccccc1 [compound 1, phenol (R = H)] was tested. Which Ki did it give?
A: 52.3 µM

Q: For Oc1ccccc1O [compound 2, R = 2-OH], which Ki is on record?
A: 4.5 µM

Q: With Oc1cccc(O)c1 [compound 3, R = 3-OH] as the compound, how does the Ki read?
A: 48.2 µM

Q: Oc1ccc(O)cc1 [compound 4, R = 4-OH] was tested. Which Ki did it give?
A: 34.9 µM

Q: Which Ki does the source give for Oc1ccc(O)c(O)c1 [compound 5, R = 2,4-diOH] here?
A: 2 µM

Q: For Nc1cccc(O)c1 [compound 6, R = 3-NH2], which Ki is on record?
A: 65.4 µM

Q: Which Ki does the source give for Nc1ccc(O)cc1 [compound 7, R = 4-NH2] here?
A: 17.6 µM

Q: With CC(=O)Nc1ccc(O)cc1 [compound 8, R = 4-NHCOCH3] as the compound, how does the Ki read?
A: 7.9 µM

Q: How did the Ki turn out when N#Cc1ccc(O)cc1 [compound 9, R = 4-CN] was run?
A: 56.9 µM

Q: For O=C(O)c1ccccc1O [compound 10, R = 2-COOH], which Ki is on record?
A: 0.95 µM

Q: With O=C(O)c1ccc(O)cc1 [compound 11, R = 4-COOH] as the compound, how does the Ki read?
A: 1.4 µM

Q: For OCc1ccc(O)cc1 [compound 12, R = 4-CH2OH], which Ki is on record?
A: 35.9 µM

Q: How did the Ki turn out when Nc1cc(O)ccc1Cl [compound 13, R = 3-NH2-4-Cl] was run?
A: > 100 µM

Q: Nc1ccc(O)c(Cl)c1 [compound 14, R = 4-NH2-2-Cl] was tested. Which Ki did it give?
A: > 100 µM

Q: With Oc1cc(F)ccc1F [compound 15, R = 2,5-diF] as the compound, how does the Ki read?
A: 30.7 µM

Q: With Oc1cc(F)cc(F)c1 [compound 16, R = 3,5-diF] as the compound, how does the Ki read?
A: 21 µM

Q: With Oc1c(F)cc(F)cc1F [compound 17, R = 2,4,6-triF] as the compound, how does the Ki read?
A: 13.8 µM

Q: O=C(O)c1ccc(O)c(O)c1 [compound 18, R = 4-COOH-2-OH] was tested. Which Ki did it give?
A: 4.9 µM

Q: O=C(O)c1c(O)cccc1O [compound 19, R = 2-COOH-3-OH] was tested. Which Ki did it give?
A: 2.7 µM

Q: With O=C(O)c1cc(O)ccc1O [compound 20, R = 2-COOH-4-OH] as the compound, how does the Ki read?
A: 0.81 µM

Q: For O=C(O)/C=C/c1ccc(O)cc1 [compound 21, R = 4-(CHCHCOOH)], which Ki is on record?
A: 14.5 µM

Q: O=C(O)/C=C/c1ccc(O)c(O)c1 [compound 22, R = 2-OH-4-(CHCHCOOH)] was tested. Which Ki did it give?
A: 5.9 µM
